Laboratory results reported in USRE35862E, “Delivery systems for pharmacological agents encapsulated with proteinoids” (Emisphere Technologies, Inc., priority 1994, dated 1998).
Read-outs that look alike come from different tables or passages of the source.

Tests used:
blood glucose [1] = conditions: oral, far larger dosages per unit of body weight, unprotected, laboratory animals and humans; cited from earlier work
[2] = system: Time to coagulation (fibrin clot); test: Activated Partial Thromboplastin Time (APTT) test, Table 6 (Example 8b); format: in vivo, rat
Method: Seven male white rats, each weighing approximately 600 g, are deprived of food for 12 hours before the start of the experiment. Rat #1 receives no treatment. Rat #2 receives an intravenous injection of 250 mg of heparin in one ml of distilled water. […] The effect of heparin is determined using the Activated Partial Thromboplastin Time (APTT) test. This test measures the time necessary for a sample of […] taken from the tail vein to form a fibrin clot.

coagulation time = conditions: oral, far larger doses per unit of body weight, unprotected, laboratory animals and humans; cited from earlier work
[3] = insulin in solution, even when refrigerated; cited from earlier work
blood glucose [4] = test: Blood glucose in normal rats, Table 2 (Example 4); format: in vivo, rat; conditions: 1 ml/500 g by gavage
Method: Doses of the resulting suspension, which contain no insulin within the microspheres, are referred to as "microspheres with external insulin". Dosages of the 2.5 mg/ml solution of porcine insulin alone are referred to as "raw insulin".
Twelve male white rats, each weighing approximately 500 g and havinng a normal blood glucose level, are arbitrarily assigned to two groups of three animals and a third group of six animals. The three animals of group A are administered the insulin filled microspheres by gavage and the three animals of group B are similarly administered the microspheres with external insulin. The six animals of group C similarly receive the raw insulin. All dosages are 1 ml/500 g of body weight and all animals are tested for blood glucose immediately before dosage and at intervals thereafter.

blood glucose [5] = test: Blood glucose in normal rats, Table 1 (Example 2c); format: in vivo, rat; conditions: Group Four
Method: The Group Two rats have between 1.5 and 1.7 ml of the suspension similarly administered. The rats of Group Three receive 1.0 ml of distilled water similarly administered. The rats of Group Four similarly receive 25.0 mg of porcine insulin in 1.0 ml of distilled water. Both before and during the experiment, all animals are permitted free access to water and their normal feed. Blood glucose levels are measured on samples drawn from the tail at specific intervals after treatment and group averages are recorded in Table 1 as milligrams of glucose per deciliter of blood (mg/dl).

blood glucose [6] = system: blood glucose
Method: Diabetes mellitis is induced in rats weighing approximately 300 g by giving each a 75 mg/kg body weight intravenous injection of streptozotocin. Ten rats which are observed to show consistently high blood glucose levels, polyuria and polydipsia and must be maintained on subcutaneous injections of porcine insulin are selected for this experiment.
The remaining six diabetic rats are arbitrarily assigned to three groups of two animals. […] The animals of the second and third groups receive subcutaneous injections of 0.25 mg (6.5 I.U.) and 0.125 mg (3.25 I.U.), respectively, of porcine insulin. Blood glucose measurements are made on all animals immediately before dosing and at intervals thereafter. The animal groups are crossed over twice at one week intervals, so that all of the animals receive each of the insulin treatments.

For bovine insulin, the “reduction of blood glucose levels” value (blood glucose [1]) is listed as “no detectable reduction of blood glucose levels”.
In the case of heparin, the “Time to Coagulation in the APTT Test” value ([2]; 1 hr, IV 250 mg) is reported as 54 s, the “Time to Coagulation in the APTT Test” value ([2]; 2 hrs, IV 250 mg) is reported as > 300 s and the “Time to Coagulation in the APTT Test” value ([2]; Predose, IV group, 250 mg) is reported as 25 s. For the same substance, the “increase in coagulation time” value (coagulation time) was “no detectable increase in coagulation time”.
In the case of insulin, the degradation in solution [3] is given as “degrade within a few days”.
For porcine insulin, the “Blood Glucose” value (blood glucose [4]; 0 hrs) was 92.7 mg/dL, the “effect on blood glucose levels” value (blood glucose [4]) was “no significant effect” and the “Blood Glucose” value (blood glucose [4]; 1 hrs) was 98.2 mg/dL. The “Blood Glucose” value (blood glucose [4]; 2 hrs) was 95.8 mg/dL, the “Blood Glucose” value (blood glucose [4]; 3 hrs) was 86.2 mg/dL and the “Blood Glucose” value (blood glucose [4]; 4 hrs) was 91 mg/dL. For the same substance, the “Blood Glucose” value (blood glucose [4]; 6 hrs) was 89.8 mg/dL, the “Blood Glucose” value (blood glucose [4]; 8 hrs) was 91 mg/dL and the “Blood Glucose” value (blood glucose [4]; 12 hrs) was 92 mg/dL. For the same substance, the “Blood Glucose” value (blood glucose [4]; 24 hrs) was 92 mg/dL, the “Blood Glucose” value (blood glucose [4]; .5 hrs) was 95.5 mg/dL and the “reduction of blood glucose levels” value (blood glucose [1]) was “no detectable reduction of blood glucose levels”. The “Ave. Blood Glucose” value (blood glucose [5]; 30 min, 25.0 mg by gavage) was 120 mg/dL, the “Ave. Blood Glucose” value (blood glucose [5]; 1 hr, 25.0 mg by gavage) was 120 mg/dL and the “Ave. Blood Glucose” value (blood glucose [5]; 1.5 hr, 25.0 mg by gavage) was 124 mg/dL. For the same substance, the “Ave. Blood Glucose” value (blood glucose [5]; 2 hr, 25.0 mg by gavage) was 120 mg/dL, the “Ave. Blood Glucose” value (blood glucose [5]; 3 hr, 25.0 mg by gavage) was 116 mg/dL and the “Ave. Blood Glucose” value (blood glucose [5]; 4 hr, 25.0 mg by gavage) was 111 mg/dL. For the same substance, the “Ave. Blood Glucose” value (blood glucose [5]; 6 hr, 25.0 mg by gavage) was 123 mg/dL, the “Ave. Blood Glucose” value (blood glucose [5]; Predose, 25.0 mg in 1.0 ml water by gavage) was 113 mg/dL and the “% Decrease from Baseline Blood Glucose” value (blood glucose [6]; 0.5 hrs, 0.125 mg SC) was 5%. For the same substance, the “% Decrease from Baseline Blood Glucose” value (blood glucose [6]; 0.5 hrs, 0.25 mg SC) was 28%, the “% Decrease from Baseline Blood Glucose” value (blood glucose [6]; 1 hrs, 0.125 mg SC) was 17% and the “% Decrease from Baseline Blood Glucose” value (blood glucose [6]; 1 hrs, 0.25 mg SC) was 55%. For the same substance, the “% Decrease from Baseline Blood Glucose” value (blood glucose [6]; 1.5 hrs, 0.125 mg SC) was 27%, the “% Decrease from Baseline Blood Glucose” value (blood glucose [6]; 1.5 hrs, 0.25 mg SC) was 72% and the “% Decrease from Baseline Blood Glucose” value (blood glucose [6]; 2 hrs, 0.125 mg SC) was 45%. The “% Decrease from Baseline Blood Glucose” value (blood glucose [6]; 2 hrs, 0.25 mg SC) was 77%, the “% Decrease from Baseline Blood Glucose” value (blood glucose [6]; 3 hrs, 0.125 mg SC) was 47% and the “% Decrease from Baseline Blood Glucose” value (blood glucose [6]; 3 hrs, 0.25 mg SC) was 84%. For the same substance, the “% Decrease from Baseline Blood Glucose” value (blood glucose [6]; 4 hrs, 0.125 mg SC) was 29%, the “% Decrease from Baseline Blood Glucose” value (blood glucose [6]; 4 hrs, 0.25 mg SC) was 79% and the “% Decrease from Baseline Blood Glucose” value (blood glucose [6]; 6 hrs, 0.125 mg SC) was 8%. The “% Decrease from Baseline Blood Glucose” value (blood glucose [6]; 6 hrs, 0.25 mg SC) was 34%, the “% Decrease from Baseline Blood Glucose” value (blood glucose [6]; 8 hrs, 0.125 mg SC) was -8% and the “% Decrease from Baseline Blood Glucose” value (blood glucose [6]; 8 hrs, 0.25 mg SC) was 4%. For the same substance, the “% Decrease from Baseline Blood Glucose” value (blood glucose [6]; 12 hrs, 0.125 mg SC) was -8%, the “% Decrease from Baseline Blood Glucose” value (blood glucose [6]; 12 hrs, 0.25 mg SC) was 3% and the “% Decrease from Baseline Blood Glucose” value (blood glucose [6]; 24 hrs, 0.125 mg SC) was -8%. For the same substance, the “% Decrease from Baseline Blood Glucose” value (blood glucose [6]; 24 hrs, 0.25 mg SC) was -7%, the “% Decrease from Baseline Blood Glucose” value (blood glucose [6]; 48 hrs, 0.125 mg SC) was -8% and the “% Decrease from Baseline Blood Glucose” value (blood glucose [6]; 48 hrs, 0.25 mg SC) was -5%.
